Values quoted from earlier work in paper PMC10116525 (ACS Omega, 2023).
Read-outs that look alike come from different tables or passages of the source.

[1] = Lys^B29-lipidated insulin analogues

Substance	Duration of action [1]	Duration of action (precipitation in the subcutaneous space)
degludec	≤ 42 h	
detemir	up to 24 h	
insulin glargine		up to 24 h
